Experimental data published in patent US9993462B2, “Hydantoin derivative-containing pharmaceutical composition” (Chugai Seiyaku Kabushiki Kaisha, priority 2014, dated 2018).

Key:
[1] = tested on: human articular chondrocytes; assay: Proteoglycan synthesis by human articular chondrocytes (35S-sulfate incorporation); type: cell-based; conditions: cultured for 13 days
Procedure: After purchase of cryopreserved human articular chondrocytes (Lot 2867, Cell Applications Inc.), the cells were thawed in a 37° C. water bath, 15 mL of Basal Medium supplemented with 10% Growth Supplement (Growth Medium, Cell Applications Inc.) was placed in a T75 culture flask (CORNING, Corning Japan K. K.) to culture the cells, and exchanged the next day with 15 mL of Growth Medium; and the cells were cultured for three days. Growth Medium was then removed, and HBSS (Cell Applications Inc.) was used to wash the chondrocyte layer. With addition of 1 mL of trypsin/EDTA solution (Cell Applications Inc.), this was left to stand at room temperature for approximately five minutes, and chondrocytes were detached from the flask. With 10 mL of Neutralization solution (Cell Applications Inc.) added, Bulker-Turk hemocytometer was used to determine the cell count, and the cells were then transferred to a 15-mL test tube for centrifugation (1,200 rpm for five minutes, Tomy Seiko Co., Ltd.) to produce a chondrocyte pellet. The supernatant was discarded, and the cells were placed in a 1.2% sodium alginate solution (25 mmol/L HEPES/150 mmol/L sodium chloride solution, pH7.0) at 2×10^6 cells/mL. This was drawn into a 1-mL syringe (Terumo Corporation) equipped with a 22G injection needle, five drops were added to each well of a 24-well plate (Corning Japan K.K.) containing 2 mL of 102 mmol/L aqueous CaCl2 solution, and this was left to stand for five minutes to form beads. Subsequently, this was washed three times with a 150 mmol/L sodium chloride solution and incubated for one day in Growth Medium, and the medium was exchanged with Basal Medium supplemented with 1% Growth supplement (Cell Applications Inc.). In this procedure, the following factors were added to the medium, and the cells were cultured for 13 days with three times of medium exchange performed per week.
On day 12 of culturing, ^35S-labeled sulfuric acid (PerkinElmer Japan Co., Ltd.) was added at 370 kBq/well, and the medium was collected 24 hours later into a test tube and stored at 4° C. To the alginate gel, a 55 mmol/L sodium citrate solution (Nacalai Tesque, Inc.; 1 mL/well) was added, and this was incubated at 37° C. for ten minutes for solation. This was collected into a microtube (Eppendorf AG) and then centrifuged (1,200 rpm, five minutes) to produce a chondrocyte pellet. […] The glass filter was transferred to a liquid scintillation counter vial, 5 mL of scintillator (Hionic-Fluor, PerkinElmer Japan Co., Ltd.) was added and radioactivity was measured on a liquid scintillation counter (TRI-CARB, PerkinElmer Japan Co., Ltd.).
The remaining 0.1 mL of the digested solution was used for DNA quantification. […]

[2] = biological target: T1, human PTH1R (Homo sapiens, UniProt Q03431); assay: In vitro cAMP signal activity via the human PTH1R (HKRK-B7 cells); type: cell-based; conditions: concentration at 20% cAMP signaling activity, human PTH(1-34) at 100 nM = 100%
T1 construct: expressed in transfected cells; host or cells: HKRK-B7 (LLC-PK1 porcine kidney cells stably expressing human PTH1R)
T1 sequence (Q03431 27-593): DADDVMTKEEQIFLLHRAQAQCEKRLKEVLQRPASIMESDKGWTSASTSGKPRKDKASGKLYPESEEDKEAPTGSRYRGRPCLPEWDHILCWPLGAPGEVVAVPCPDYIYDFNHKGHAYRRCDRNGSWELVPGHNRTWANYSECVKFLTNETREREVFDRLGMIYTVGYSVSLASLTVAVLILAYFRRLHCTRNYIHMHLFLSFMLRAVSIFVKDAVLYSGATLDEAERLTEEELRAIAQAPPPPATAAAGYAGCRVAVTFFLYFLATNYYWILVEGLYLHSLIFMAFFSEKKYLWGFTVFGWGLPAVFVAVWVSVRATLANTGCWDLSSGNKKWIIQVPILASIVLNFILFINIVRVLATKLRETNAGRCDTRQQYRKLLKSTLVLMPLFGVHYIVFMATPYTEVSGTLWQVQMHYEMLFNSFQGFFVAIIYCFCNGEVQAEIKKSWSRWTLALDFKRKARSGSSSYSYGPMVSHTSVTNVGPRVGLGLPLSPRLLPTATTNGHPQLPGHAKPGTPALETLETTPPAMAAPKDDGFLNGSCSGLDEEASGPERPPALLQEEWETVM
Procedure: Human PTH(1-34) and calcitonin were purchased from Peptide Institute, Inc. (Osaka, Japan), dissolved in 10 mM acetic acid to 1 mM and stored in a −80° C. freezer.
Cells were cultured in Dulbecco's modified Eagle's medium (DMEM) supplemented with 10% fetal bovine serum (Hyclone), 100 units/ml penicillin G and 100 μg/ml streptomycin sulfate (Invitrogen Corp) at 37° C. in a humidified atmosphere containing 5% CO2.
cAMP signal transduction analysis utilized LLC-PK1 cells not expressing the PTH1R, and HKRK-B7 cells, that is, LLC-PK1 cells overexpressing the human PTH1R at 9.5×10^5 receptors/cell (Takasu et al., J. Bone. Miner. Res. 14:11-20, 1999).
HKRK-B7 or LLC-PK1 cells were seeded into a 96-well plate at 1×10^5 cells/well and incubated overnight. On the following day, 50 μl of cAMP assay buffer (DMEM, 2 mM IBMX, 0.2 mg/ml bovine serum albumin, 35 mM Hepes-NaOH, pH 7.4) containing human PTH(1-34) or each compound was added and the plate was placed in a 37° C. incubator. The cells were incubated for 20 minutes. After removing the medium, the cells were washed with 100 μl of cAMP assay buffer once. The plate was placed on dry ice powder to freeze the cells and then removed from the dry ice. The cells were lysed with 40 μl of 50 mM HCl and frozen again on dry ice. The amount of intracellular cAMP produced was measured using a commercially available cAMP EIA kit (Biotrack cAMP EIA system, GE health care).
Analyses were performed using a variable gradient S-shaped dose-response curve equation.

Cc1cc(N2C(=O)NC(=O)C2(C)C)cc(C)c1CCS(=O)(=O)N1CCC2(CC1)N=C(c1ccc(OC(F)(F)F)cc1)NC2=O [Compound 7, 1-(3,5-dimethyl-4-(2-((4-oxo-2-(4-(trifluoromethoxy)phenyl)-1,3,8-triazaspiro[4.5]deca-1-en-8-yl)sulfonyl)ethyl)phenyl)-5,5-dimethylimidazolidine-2,4-dione]
radioactivity (proteoglycan synthesis, cpm/μg DNA) relative to the vehicle control ([1]; 10^−5 mol/L): 10 fold
radioactivity (proteoglycan synthesis, cpm/μg DNA) relative to the vehicle control ([1]; 10^−6 mol/L): 3 fold
EC20 [2]: 1100 nM
